IC50 data for 29 compounds are collected here from patent US10654814B2, “Bicyclic hydroxamic acids useful as inhibitors of mammalian histone deacetylase activity” (KANCERA AB, priority 2015, dated 2020).

As a reminder, the IC50 is the concentration that gives 50% inhibition.

Common to all, as to assay type: biochemical
One assay deals with HDAC3 (Homo sapiens (Human), UniProt O15379). Description: HDAC3 in vitro enzymatic assay (fluorescence). Particulars: Table 4 selectivity profiling. On the procedure:
(§1) Biological Tests Method for Measurement of Enzymatic Activity of HDACs Materials & Methods
(§2) All Examples were tested in HDAC1,2,3,6 and 8 in vitro enzymatic assays. The assay principle is well known (Hauser et al. 2009, Bradner et al. 2010) and all necessary reagents like enzymes, substrates, developer and reference compounds are commercially available (see e.g. BPS Biosciences http://www.bpsbioscience.com/). Stock solutions (10 mM in DMSO) of compounds were serially diluted 1:3 in 11 concentrations with a top concentration of 200 μM for HDAC1,2,3 and 2 μM for HDAC6 and HDAC8. The enzymatic reactions were conducted in a mixture containing assay buffer, bovine serum albumin, HDAC substrate, and a test compound. After enzymatic reaction, developer was added and after an additional incubation time, fluorescence intensity was measured at an excitation wavelength of 360 nm and an emission wavelength of 460 nm. All experiments were performed in duplicate.

The next assay concerns the target HDAC1 (Homo sapiens (Human), UniProt Q13547). Put plainly: HDAC1 in vitro enzymatic assay (fluorescence). Particulars: Table 4 selectivity profiling. The procedure: as §1, §2
A further assay addresses HDAC2 (Homo sapiens (Human), UniProt Q92769). Put plainly: HDAC2 in vitro enzymatic assay (fluorescence). Particulars: Table 4 selectivity profiling. On the procedure:
as §1, §2

The target of another assay is HDAC8 (Homo sapiens (Human), UniProt Q9BY41). Put plainly: HDAC8 in vitro enzymatic assay (fluorescence). As to conditions: Table 4 selectivity profiling. The procedure:
as §1, §2

The target of a further assay is HDAC6 (Homo sapiens (Human), UniProt Q9UBN7). Description: HDAC6 in vitro enzymatic assay (fluorescence). The procedure: as §1, §2
[1] abbreviates: Table 3, read-out: IC50 (nM) for inhibition of HDAC6.
Setting [2] is: Table 4 selectivity profiling, read-out: IC50 (nM) HDAC6.

Structures can show the parent of a compound that is named as a salt. Where two headings read alike, the source gives them in different places. Bounds are passed on as bounds.

Sequence of HDAC6 (Q9UBN7 whole entry): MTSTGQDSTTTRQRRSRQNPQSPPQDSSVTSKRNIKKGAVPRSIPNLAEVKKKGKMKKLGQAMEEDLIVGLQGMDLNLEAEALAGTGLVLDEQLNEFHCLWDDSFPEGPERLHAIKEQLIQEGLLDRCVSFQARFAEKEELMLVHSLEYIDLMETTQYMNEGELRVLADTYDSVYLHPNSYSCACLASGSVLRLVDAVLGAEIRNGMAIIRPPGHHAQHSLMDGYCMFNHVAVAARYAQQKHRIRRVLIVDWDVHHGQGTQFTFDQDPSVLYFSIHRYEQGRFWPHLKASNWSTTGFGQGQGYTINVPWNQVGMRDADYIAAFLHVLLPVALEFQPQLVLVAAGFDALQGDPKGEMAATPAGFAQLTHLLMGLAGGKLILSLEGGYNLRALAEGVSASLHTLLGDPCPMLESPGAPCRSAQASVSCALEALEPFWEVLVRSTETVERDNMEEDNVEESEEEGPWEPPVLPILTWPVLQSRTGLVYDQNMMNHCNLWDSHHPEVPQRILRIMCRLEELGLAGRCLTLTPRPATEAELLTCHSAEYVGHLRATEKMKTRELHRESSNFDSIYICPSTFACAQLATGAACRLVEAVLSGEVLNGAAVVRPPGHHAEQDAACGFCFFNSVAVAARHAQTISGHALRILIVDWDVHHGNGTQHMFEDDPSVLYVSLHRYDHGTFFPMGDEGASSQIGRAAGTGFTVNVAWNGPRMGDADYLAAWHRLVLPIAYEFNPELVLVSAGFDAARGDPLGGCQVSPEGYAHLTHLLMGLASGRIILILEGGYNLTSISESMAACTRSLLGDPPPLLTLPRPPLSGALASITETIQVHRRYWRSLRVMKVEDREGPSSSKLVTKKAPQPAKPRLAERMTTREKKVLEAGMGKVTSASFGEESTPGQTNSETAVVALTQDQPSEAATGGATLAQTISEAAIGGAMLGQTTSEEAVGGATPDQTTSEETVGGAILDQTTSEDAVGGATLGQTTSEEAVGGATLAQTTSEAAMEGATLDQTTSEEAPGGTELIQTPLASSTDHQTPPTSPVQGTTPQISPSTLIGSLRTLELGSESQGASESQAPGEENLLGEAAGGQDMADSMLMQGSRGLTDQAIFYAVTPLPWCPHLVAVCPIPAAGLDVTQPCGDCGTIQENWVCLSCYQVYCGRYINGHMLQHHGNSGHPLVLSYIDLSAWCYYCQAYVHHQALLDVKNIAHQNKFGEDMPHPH
Sequence of HDAC1 (Q13547 whole entry): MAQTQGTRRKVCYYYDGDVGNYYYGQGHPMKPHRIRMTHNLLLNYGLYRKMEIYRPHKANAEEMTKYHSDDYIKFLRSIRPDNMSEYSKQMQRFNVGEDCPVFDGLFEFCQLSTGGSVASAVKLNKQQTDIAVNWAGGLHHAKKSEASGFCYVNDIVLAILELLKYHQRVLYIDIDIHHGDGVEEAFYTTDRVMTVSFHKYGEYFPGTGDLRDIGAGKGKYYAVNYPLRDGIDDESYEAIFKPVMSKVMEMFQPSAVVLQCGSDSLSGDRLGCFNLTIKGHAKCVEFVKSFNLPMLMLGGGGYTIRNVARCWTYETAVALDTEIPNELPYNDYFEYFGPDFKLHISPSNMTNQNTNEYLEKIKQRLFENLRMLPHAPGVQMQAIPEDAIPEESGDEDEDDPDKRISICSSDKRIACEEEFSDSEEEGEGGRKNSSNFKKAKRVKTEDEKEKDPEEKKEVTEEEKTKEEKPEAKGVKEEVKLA
Sequence of HDAC8 (Q9BY41 whole entry): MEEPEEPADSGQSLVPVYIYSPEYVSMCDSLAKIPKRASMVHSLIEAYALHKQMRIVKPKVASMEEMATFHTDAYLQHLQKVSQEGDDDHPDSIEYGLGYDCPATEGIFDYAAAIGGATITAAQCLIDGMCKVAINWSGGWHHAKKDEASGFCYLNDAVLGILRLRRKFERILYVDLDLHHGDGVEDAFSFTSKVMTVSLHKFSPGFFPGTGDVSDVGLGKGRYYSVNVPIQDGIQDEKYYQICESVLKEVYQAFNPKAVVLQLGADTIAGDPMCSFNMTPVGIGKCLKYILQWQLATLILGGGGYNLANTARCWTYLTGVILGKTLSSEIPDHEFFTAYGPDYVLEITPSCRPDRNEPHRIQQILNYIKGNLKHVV
Sequence of HDAC3 (O15379 whole entry): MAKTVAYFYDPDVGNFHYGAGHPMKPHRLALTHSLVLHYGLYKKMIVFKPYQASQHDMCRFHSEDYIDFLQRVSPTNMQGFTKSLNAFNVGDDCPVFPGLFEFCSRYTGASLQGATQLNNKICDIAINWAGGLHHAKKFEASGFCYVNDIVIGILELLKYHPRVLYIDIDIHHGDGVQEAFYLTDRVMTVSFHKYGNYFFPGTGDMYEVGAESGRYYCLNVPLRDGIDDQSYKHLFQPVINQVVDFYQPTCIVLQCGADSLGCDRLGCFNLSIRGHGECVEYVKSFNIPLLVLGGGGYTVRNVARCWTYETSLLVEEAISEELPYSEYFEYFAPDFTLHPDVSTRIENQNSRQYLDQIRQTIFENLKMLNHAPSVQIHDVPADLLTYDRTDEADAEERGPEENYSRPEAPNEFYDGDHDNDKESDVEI
Sequence of HDAC3 (Q9Y618 395-489 partner): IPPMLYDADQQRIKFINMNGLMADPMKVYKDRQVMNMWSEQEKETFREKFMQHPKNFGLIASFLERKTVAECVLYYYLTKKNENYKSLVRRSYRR
Sequence of HDAC2 (Q92769 whole entry): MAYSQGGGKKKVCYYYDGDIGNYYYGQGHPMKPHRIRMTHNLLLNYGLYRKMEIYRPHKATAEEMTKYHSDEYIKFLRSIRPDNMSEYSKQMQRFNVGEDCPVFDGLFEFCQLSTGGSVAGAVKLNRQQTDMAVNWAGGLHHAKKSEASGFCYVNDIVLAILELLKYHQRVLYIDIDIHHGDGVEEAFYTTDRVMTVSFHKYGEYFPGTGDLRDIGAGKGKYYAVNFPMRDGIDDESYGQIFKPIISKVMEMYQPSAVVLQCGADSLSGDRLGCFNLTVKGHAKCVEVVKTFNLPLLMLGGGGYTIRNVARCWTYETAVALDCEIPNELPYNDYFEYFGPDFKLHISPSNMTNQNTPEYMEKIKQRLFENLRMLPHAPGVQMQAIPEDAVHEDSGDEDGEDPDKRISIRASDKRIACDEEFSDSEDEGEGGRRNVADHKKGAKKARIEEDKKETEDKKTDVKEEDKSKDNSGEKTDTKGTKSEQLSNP

On to `CCN(CC)Cc1cc2ccc(C(=O)NO)cc2o1` [Example 117, 2-[(Diethylamino)methyl]-N-hydroxy-1-benzofuran-6-carboxamide trifluoroacetate], for which the IC50 turned out to be 25000 nM on HDAC3; 19000 nM on HDAC1; 69000 nM on HDAC2; 1400 nM at HDAC8; 64 nM at HDAC6 (setting [1]); 26 nM at HDAC6 (setting [2]).
In the case of `O=C(NO)c1ccc2nc(-c3cccc4cccnc34)sc2c1` [Example 70, N-hydroxy-2-quinolin-8-yl-1,3-benzothiazole-6-carboxamide], the IC50 against HDAC3 was 2300 nM; against HDAC1 it was 6100 nM; at HDAC2, 19000 nM; on HDAC8 it was 320 nM; at HDAC6 (setting [2]), 65 nM.
As to `O=C(NO)c1ccc2oc(COc3cccc(F)c3)cc2c1` [Example 162, 2-[(3-Fluorophenoxy)methyl]-N-hydroxy-1-benzofuran-5-carboxamide], the IC50 at HDAC3 stood at 320 nM; against HDAC1 it was 550 nM; at HDAC2, 3500 nM; against HDAC8 it was 1500 nM; on HDAC6 (setting [1]), 7 nM; on HDAC6 (setting [2]), 7 nM.
On to `O=C(NO)c1ccc2nc(Nc3cccc(OCc4ccccc4)c3)[nH]c2c1` [Example 132, 2-((3-(benzyloxy)phenyl)amino)-N-hydroxy-1H-benzo[d]imidazole-6-carboxamide], for which the IC50 against HDAC3 stood at 370 nM; on HDAC1, 1200 nM; against HDAC2 it was 24000 nM; against HDAC8, 240 nM; at HDAC6 (setting [1]), 17 nM; at HDAC6 (setting [2]) it was 17 nM.
`Cc1noc(C)c1-c1cc2cc(C(=O)NO)ccc2s1` [Example 100, 2-(3,5-dimethylisoxazol-4-yl)-N-hydroxy-1-benzothiophene-5-carboxamide]: the IC50 was 18000 nM against HDAC3; 14000 nM at HDAC1; 74000 nM on HDAC2; 760 nM against HDAC8; 36 nM on HDAC6 (setting [1]); 36 nM at HDAC6 (setting [2]).
As to `COc1cccc(-c2cc3ccc(C(=O)NO)cc3o2)c1` [Example 285, N-hydroxy-2-(3-methoxyphenyl)-1-benzofuran-6-carboxamide], the IC50 on HDAC3 was found to be 640 nM; on HDAC1, 470 nM; against HDAC2, 6900 nM; against HDAC8, 210 nM; at HDAC6 (setting [1]), 4 nM; at HDAC6 (setting [2]), 4 nM.
Consider `COc1ccc(-c2ccc(-c3nc4cc(C(=O)NO)ccc4o3)c(F)c2)cn1` [Example 176, 2-[2-fluoro-4-(6-methoxypyridin-3-yl)phenyl]-N-hydroxy-1,3-benzoxazole-5-carboxamide], for which the IC50 was 960 nM on HDAC3; more than 200000 nM against HDAC1; more than 200000 nM on HDAC2; 384 nM against HDAC8; 16 nM on HDAC6 (setting [2]).
As for `O=C(NO)c1ccc2sc(-c3ccc(F)cc3)nc2c1` [Example 76, 2-(4-Fluorophenyl)-N-hydroxy-1,3-benzothiazole-5-carboxamide], the IC50 against HDAC3 came to 450 nM; at HDAC1, 1500 nM; on HDAC2, 6600 nM; at HDAC8, 340 nM; at HDAC6 (setting [1]), 18 nM; on HDAC6 (setting [2]), 18 nM.
Regarding `O=C(NO)c1ccc2oc(-c3ccc(C(F)(F)F)cc3)nc2c1` [Example 18, N-hydroxy-2-[4-(trifluoromethyl)phenyl]-1,3-benzoxazole-5-carboxamide], the IC50 against HDAC3 stood at 1600 nM; at HDAC1 it was 2000 nM; against HDAC2, 11000 nM; against HDAC8, 1300 nM; on HDAC6 (setting [2]), 37 nM.
As for `O=C(NO)c1ccc2sc(-c3cccnc3)cc2c1` [Example 96, N-hydroxy-2-pyridin-3-yl-1-benzothiophene-5-carboxamide], the IC50 on HDAC3 was determined as 7200 nM; on HDAC1 it was 9700 nM; against HDAC2, 55000 nM; at HDAC8 it was 960 nM; on HDAC6 (setting [1]), 64 nM; on HDAC6 (setting [2]), 64 nM.
In the case of `CC(C)c1ccc(-c2cc3cc(C(=O)NO)cnc3o2)cc1` [Example 113, N-Hydroxy-2-[4-(1-methylethyl)phenyl]furo[2,3-b]pyridine-5-carboxamide], the IC50 on HDAC3 is 330 nM; on HDAC1, 500 nM; on HDAC2, 2000 nM; on HDAC8, 120 nM; on HDAC6 (setting [1]), 22 nM; at HDAC6 (setting [2]), 22 nM.
With `O=C(NO)c1ccc2oc(-c3ccccc3Cl)nc2c1` [Example 12, 2-(2-chlorophenyl)-N-hydroxy-1,3-benzoxazole-5-carboxamide], the IC50 against HDAC3 was determined as 560 nM; on HDAC1 it was 1200 nM; against HDAC2 it was 52000 nM; against HDAC8, 880 nM; on HDAC6 (setting [1]), 5 nM; on HDAC6 (setting [2]), 5 nM.
As to `O=C(NO)c1ccc2oc(Nc3cccc(OCc4ccccc4)c3)nc2c1` [Example 47, 2-{[3-(benzyloxy)phenyl]amino}-N-hydroxy-1,3-benzoxazole-5-carboxamide], the IC50 on HDAC6 (setting [1]) is 31 nM.
As for `COc1cc(-c2ccccc2F)ccc1-c1nc2cc(C(=O)NO)ccc2o1` [Example 196, 2-(2′-fluoro-3-methoxybiphenyl-4-yl)-N-hydroxy-1,3-benzoxazole-5-carboxamide], on HDAC6 (setting [1]), the IC50 is 20 nM.
Regarding `O=C(NO)c1ccc2oc(-c3ccc4c(c3)OCO4)nc2c1` [Example 8, 2-(1,3-benzodioxo1-5-yl)-N-hydroxy-1,3-benzoxazole-5-carboxamide], at HDAC6 (setting [1]), the IC50 amounted to 14 nM.
On to `Cn1c(N2CCc3ccccc3C2)nc2cc(C(=O)NO)ccc21` [Example 145, 2-(3,4-dihydroisoquinolin-2(1H)-yl)-N-hydroxy-1-methyl-1H-benzo[d]imidazole-5-carboxamide], for which, at HDAC6 (setting [1]), the IC50 was determined as 42 nM.
For `CC(C)c1ccc(-c2nc3ncc(C(=O)NO)cc3[nH]2)cc1` [Example 57, N-Hydroxy-2-[4-(1-methylethyl)phenyl]-1H-imidzo[4,5-b]pyridine-6-carboxamide], the IC50 at HDAC6 (setting [1]) is 11 nM.
As for `O=C(NO)c1ccc2oc(Nc3ccccc3)nc2c1` [Example 42, N-Hydroxy-2-(phenylamino)-1,3-benzoxazole-5-carboxamide], the IC50 at HDAC6 (setting [1]) came to 14 nM.
On to `O=C(NO)c1ccc2sc(Cc3ccc(F)cc3)nc2c1` [Example 79, 2-(4-fluorobenzyl)-N-hydroxy-1,3-benzothiazole-5-carboxamide], for which the IC50 at HDAC6 (setting [1]) was found to be 7 nM.
With `O=C(NO)c1ccc2oc(NC3(c4cccc(F)c4)CCCCC3)nc2c1` [Example 262, 2-{[1-(3-fluorophenyl)cyclohexyl]amino}-N-hydroxy-1,3-benzoxazole-5-carboxamide], the IC50 on HDAC6 (setting [1]) was found to be 9 nM.
Still for that read-out and setting: then `O=C(NO)c1ccc2oc(-c3ccc(-c4cccnc4)cc3F)nc2c1` [Example 175, 2-(2-fluoro-4-pyridin-3-ylphenyl)-N-hydroxy-1,3-benzoxazole-5-carboxamide], with 34 nM.
The same measure, in the same setting: then `O=C(NO)c1ccc2oc(-c3ccc(-c4ccccc4)nc3)nc2c1` [Example 161, N-Hydroxy-2-(6-phenylpyridin-3-yl)-1,3-benzoxazole-5-carboxamide trifluoroacetate], with 22 nM.
Still for that read-out and setting: the figure for `N#Cc1ccc(-c2nc3cc(C(=O)NO)ccc3o2)cc1` [Example 36, 2-(4-Cyanophenyl)-N-hydroxy-1,3-benzoxazole-5-carboxamide] is 56 nM; for `COc1ccc(-c2cc3cc(C(=O)NO)ccc3o2)cn1` [Example 278, N-hydroxy-2-(6-methoxypyridin-3-yl)-1-benzofuran-5-carboxamide] it is 96 nM.
For the compound `O=C(NO)c1ccc2oc(-c3ccc(C4CC4)cc3)nc2c1` [Example 29, 2-(4-Cyclopropylphenyl)-N-hydroxy-1,3-benzoxazole-5-carboxamide], the IC50 came out at 1000 nM against HDAC3; 2100 nM on HDAC1; 10000 nM on HDAC2; 1400 nM against HDAC8; 10 nM at HDAC6 (setting [1]); 10 nM on HDAC6 (setting [2]).
In the case of `O=C(NO)c1ccc2oc(NCc3ccc(-c4ccccc4)cc3)nc2c1` [Example 234, 2-[(biphenyl-4-ylmethyl)amino]-N-hydroxy-1,3-benzoxazole-5-carboxamide], the IC50 on HDAC6 (setting [1]) came out at 4 nM.
Regarding `O=C(NO)c1ccc2oc(Nc3cccc(-c4ccccc4)c3)nc2c1` [Example 230, 2-(biphenyl-3-ylamino)-N-hydroxy-1,3-benzoxazole-5-carboxamide], the IC50 on HDAC6 (setting [1]) is 7 nM.
In the case of `O=C(NO)c1ccc2oc(NCCc3ccccc3)nc2c1` [Example 45, N-hydroxy-2-[(2-phenylethyl)amino]-1,3-benzoxazole-5-carboxamide], at HDAC6 (setting [1]), the IC50 was determined as 21 nM.
For `O=C(NO)c1ccc2sc(CN3CCCCC3)nc2c1` [Example 273, N-Hydroxy-2-(piperidin-1-ylmethyl)-1,3-benzothiazole-5-carboxamide], at HDAC6 (setting [1]), the IC50 came to 16 nM.
